Results on 2 compounds are retold here after patent publication US11166944B2 (AI Therapeutics, priority 2014, dated 2021).

The test system of data set [1] is renal clear cell carcinoma cell line 769-P. Kind of data set: Antiproliferative single treatment study (CellTiterGlo, 120 h). Format: cell-based. The settings on record: Homo sapiens, read-out: IC50 (Avg., n=2). As to the method:
(§1) All drug dilutions were made up as a 2× stock and 50 μL added to appropriate wells. Cells were treated for 120 h before viability was assessed using CellTiterGlo® (Promega) where the relative luminescence of untreated cells was set to 100% viability and each drug concentration expressed as a percentage of untreated cells. EC50 values were determined using GraphPad Prism (GraphPad Software, Inc). Briefly, raw data was log transformed and then analyzed using nonlinear regression (curve fit) where the data were constrained (bottom=0, top=100).
For orientation: ATP-based viability assays read luminescence as a measure of living cells.

In data set [2] the test system is renal clear cell carcinoma cell line 786-O. The description is as above. Format: cell-based. The settings on record: Homo sapiens, 786-0, read-out: IC50 (Avg., n=2). As to the method: as §1
For data set [3], the system named is renal clear cell carcinoma cell line RCC-JF. Described as above. Format: cell-based. The settings on record: read-out: IC50 (Avg., n=2). As for the experimental part:
as §1

In data set [4] the test system is renal clear cell carcinoma cell line A704. The data set is described as above. It is filed as cell-based. The settings on record: Homo sapiens, A704, 120 h, read-out: IC50 (Avg., n=2). As to the method: as §1
The test system of data set [5] is renal clear cell carcinoma cell line RCC-JW. Described as above. Format: cell-based. The settings on record: read-out: IC50 (Avg., n=2). As to the method:
as §1

The test system of data set [6] is renal clear cell carcinoma cell line RCC-FG2. Described as above. The settings on record: read-out: IC50 (Avg., n=2); RCC-FG2, 120 h. It is filed as cell-based. As to the method:
as §1

In data set [7] the test system is renal clear cell carcinoma cell line RCC-ER. The data set is described as above. Particulars: read-out: IC50 (Avg., n=2). Format: cell-based. As for the experimental part:
as §1

For data set [8], the system named is renal clear cell carcinoma cell line RCC-MF. Described as above. It is filed as cell-based. Particulars: read-out: IC50 (Avg., n=2). As for the experimental part: as §1
The test system of data set [9] is peripheral blood mononuclear cells. Particulars: cited from earlier work.
Data set [10] deals with Jurkat. The settings on record: cited from earlier work.
Data set [11] has as its system HELA. Particulars: cited from earlier work.
Data set [12] has as its system THP-1. Particulars: cited from earlier work.
Data set [13] relates to H4. Kind of data set: Cell viability dose response. It is filed as cell-based. The settings on record: Homo sapiens, H4, Human neuroglioma. The text has this: (§2) 35 cell lines were identified as sensitive to apilimod-induced cytotoxicity.
(§3) Autophagy was quantified using the Cyto-ID Autophagy detection kit (Enzo) according to manufacturer's directions.
No statistically significant relationship was found with the sole exception of IL-23A (p=0.022). […] Importantly, the statistical significance of IL-23A expression in sensitive cancer lines appears to be driven entirely by just two colon cancer lines. Furthermore IL-23A expression is not a statistically significant predictor of sensitivity in Non-Hodgkin's B cell lymphoma.

The subject of data set [14] is ELT3-EV cells. Briefly: 10-point dose response viability (CellTiter-Glo, 72 hours). Format: cell-based. The settings on record: Rattus norvegicus, average of two experiments, read-out: IC50 TSC2−/− (viability). The text has this: (§4) See e.g., Zhang et al. J. Clin. Invest. 112, 1223-33, 2003. (2) ELT3-EV and ELT3-TSC2 lines were established from the ELT3 rat tumor cell line. The ELT3 line is an established rat tumor model for LAM/TSC. See e.g., Howe et al., Am. J. Path. 146, 1568-79, 1995. These cells harbor an inactivating mutation in TSC2, which leads to constitutive activation of the mTOR pathway. To develop an isogenic pair of cells ELT3 cells were infected with a retrovirus vector encoding the hygromycin antibiotic resistance gene (ELT3-EV) or the same retrovirus vector also encoding TSC2 (ELT3-TSC2). The ELT3-EV and ELT3-TSC2 line were then established by hygromycin selection. (3) TRI-AML102 and AML103 lines were established from a TSC2 null primary human AML sample provided by Dr. Elizabeth Henske (Fox Chase Cancer Center, Philadelphia, Pa.). The cells were infected with amphotropic retrovirus LXSN16E6E7 that encodes the HPV16 E6 and E7 open reading frames and neomycin resistance cassette. Cells were expanded and neomycin-selected. Individual clones were isolated and frozen down. The coding sequence for the human Telomerase gene (hTERT) with hygromycin resistance cassette (pLXSN hTERT-hyg plasmid) was stably expressed into a TSC2^−/− confirmed E6E7 AML clone using Fugene6 transfection reagent (Roche Applied Science, Indianapolis, Ind.). TRI-AML102 was generated by stable incorporation of a control zeomycin selection plasmid (pcDNA3.1-zeo), while TRI-AML103 expresses the human TSC2 cDNA pcDNA3.1-zeo plasmid. As a result of these engineering processes, both TRI102 and TRI103 are neomycin, hygromycin, and zeomycin resistant lines.
(§5) IC50 values were then calculated from the dose response curves using XLFIT (IDBS).

The subject of data set [15] is TRI-AML102 (TSC2 null AML) cells. The description is as above. Format: cell-based. Particulars: Homo sapiens; AML column; average of two experiments.
Excerpt: as §4, §5

Data set [16] concerns MEF-EV (TSC2−/−) cells. Described as above. It is filed as cell-based. The settings on record: Mus musculus, average of two experiments.
Excerpt: as §4, §5

Data set [17] has as its system ELT3-TSC2 cells. The data set is described as above. The settings on record: Rattus norvegicus; ELT3 rescue line; average of two experiments. Format: cell-based.
Excerpt: as §4, §5

Data set [18] concerns TRI-AML103 (TSC2 rescue AML) cells. The data set is described as above. It is filed as cell-based. The settings on record: Homo sapiens; AML column, rescue line; average of two experiments.
Excerpt: as §4, §5

Data set [19] concerns MEF-TSC2 (TSC2 rescue) cells. The data set is described as above. It is filed as cell-based. Particulars: Mus musculus; MEF TSC2 rescue line; average of two experiments.
Excerpt: as §4, §5

For data set [20], the system named is (TSC2+/−, p53−/−) MEF line. The description is as above. Format: cell-based. The settings on record: Mus musculus; MEF TSC2+/− p53−/− as counterpart of TSC2−/− p53−/−; average of two experiments; read-out: IC50 TSC2 rescue (viability).
Excerpt: as §4, §5

The test system of data set [21] is (TSC2−/−, p53−/−) MEF line. The data set is described as above. It is filed as cell-based. Particulars: Mus musculus, average of two experiments.
Excerpt: as §4, §5

The target in data set [22] is T1, Vac14 (Homo sapiens, UniProt Q08AM6).
T1 construct: endogenous in cells; host or cells: H4 human neuroglioma cells (whole cell lysate)
Briefly: Chemical capture mass spectrometry (CCMS) in H4 whole cell lysate. It is filed as binding. The settings on record: apilimod as competitor ligand. As for the experimental part:
This work was performed at Caprotec Bioanalytics GmbH, Berlin Germany. See Michaelis et al., J. Med. Chem., 55 3934-44 (2012) and references cited therein.
Capture conditions were optimized in whole cell lysate from H4 (human neuroglioma) cancer cells, e.g. minimization of non-specific interactions of the proteins with capture compounds, concentration of reagents and proteins to obtain maximum binding of proteins and capture compounds, etc. […] These specific binders were further subjected to stringent data analysis criteria to determine specificity after unbiased data evaluation. Specific protein binders were ranked according to their fold change (FC) values in the capture experiments.

Data set [23] concerns H4 neuroglioma cell line. Kind of data set: Autophagic vacuoles (Cyto-ID Autophagy detection kit). The settings on record: H4 cells, 72 hours of treatment. It is filed as cell-based, human.
Excerpt: as §3

Data set [24] relates to U937. Particulars: cited from earlier work.
Data set [25] deals with patients with rheumatoid arthritis. The settings on record: Phase II; cited from earlier work.
Data set [26] has as its system normal lung fibroblasts. Kind of data set: Cytotoxicity in normal cells. It is filed as cell-based. Particulars: concentrations as high as 10 micromolar.
Excerpt: as §2

T1 sequence (Q08AM6 whole entry): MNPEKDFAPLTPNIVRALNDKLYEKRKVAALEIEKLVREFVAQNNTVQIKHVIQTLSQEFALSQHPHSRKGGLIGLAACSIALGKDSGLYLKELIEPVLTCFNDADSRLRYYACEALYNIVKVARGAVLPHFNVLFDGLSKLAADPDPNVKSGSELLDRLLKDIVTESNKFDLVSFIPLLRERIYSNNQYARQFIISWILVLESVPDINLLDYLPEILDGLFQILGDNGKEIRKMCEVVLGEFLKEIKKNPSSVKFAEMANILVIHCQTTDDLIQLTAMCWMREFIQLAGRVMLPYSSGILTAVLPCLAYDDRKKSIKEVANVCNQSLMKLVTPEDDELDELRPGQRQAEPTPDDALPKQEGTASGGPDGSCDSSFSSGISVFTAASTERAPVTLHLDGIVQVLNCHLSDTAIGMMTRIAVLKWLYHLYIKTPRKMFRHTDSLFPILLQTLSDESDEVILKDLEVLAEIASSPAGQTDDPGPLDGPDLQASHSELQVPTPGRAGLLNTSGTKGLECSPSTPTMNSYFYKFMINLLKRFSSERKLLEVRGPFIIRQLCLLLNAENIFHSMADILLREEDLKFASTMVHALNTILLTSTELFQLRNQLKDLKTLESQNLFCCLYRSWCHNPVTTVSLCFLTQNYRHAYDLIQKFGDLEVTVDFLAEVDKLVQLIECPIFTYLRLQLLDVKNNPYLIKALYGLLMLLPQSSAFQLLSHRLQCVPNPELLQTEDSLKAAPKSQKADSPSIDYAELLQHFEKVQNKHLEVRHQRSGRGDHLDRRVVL
T1 sequence (Q9Y2I7 2-2098 partner): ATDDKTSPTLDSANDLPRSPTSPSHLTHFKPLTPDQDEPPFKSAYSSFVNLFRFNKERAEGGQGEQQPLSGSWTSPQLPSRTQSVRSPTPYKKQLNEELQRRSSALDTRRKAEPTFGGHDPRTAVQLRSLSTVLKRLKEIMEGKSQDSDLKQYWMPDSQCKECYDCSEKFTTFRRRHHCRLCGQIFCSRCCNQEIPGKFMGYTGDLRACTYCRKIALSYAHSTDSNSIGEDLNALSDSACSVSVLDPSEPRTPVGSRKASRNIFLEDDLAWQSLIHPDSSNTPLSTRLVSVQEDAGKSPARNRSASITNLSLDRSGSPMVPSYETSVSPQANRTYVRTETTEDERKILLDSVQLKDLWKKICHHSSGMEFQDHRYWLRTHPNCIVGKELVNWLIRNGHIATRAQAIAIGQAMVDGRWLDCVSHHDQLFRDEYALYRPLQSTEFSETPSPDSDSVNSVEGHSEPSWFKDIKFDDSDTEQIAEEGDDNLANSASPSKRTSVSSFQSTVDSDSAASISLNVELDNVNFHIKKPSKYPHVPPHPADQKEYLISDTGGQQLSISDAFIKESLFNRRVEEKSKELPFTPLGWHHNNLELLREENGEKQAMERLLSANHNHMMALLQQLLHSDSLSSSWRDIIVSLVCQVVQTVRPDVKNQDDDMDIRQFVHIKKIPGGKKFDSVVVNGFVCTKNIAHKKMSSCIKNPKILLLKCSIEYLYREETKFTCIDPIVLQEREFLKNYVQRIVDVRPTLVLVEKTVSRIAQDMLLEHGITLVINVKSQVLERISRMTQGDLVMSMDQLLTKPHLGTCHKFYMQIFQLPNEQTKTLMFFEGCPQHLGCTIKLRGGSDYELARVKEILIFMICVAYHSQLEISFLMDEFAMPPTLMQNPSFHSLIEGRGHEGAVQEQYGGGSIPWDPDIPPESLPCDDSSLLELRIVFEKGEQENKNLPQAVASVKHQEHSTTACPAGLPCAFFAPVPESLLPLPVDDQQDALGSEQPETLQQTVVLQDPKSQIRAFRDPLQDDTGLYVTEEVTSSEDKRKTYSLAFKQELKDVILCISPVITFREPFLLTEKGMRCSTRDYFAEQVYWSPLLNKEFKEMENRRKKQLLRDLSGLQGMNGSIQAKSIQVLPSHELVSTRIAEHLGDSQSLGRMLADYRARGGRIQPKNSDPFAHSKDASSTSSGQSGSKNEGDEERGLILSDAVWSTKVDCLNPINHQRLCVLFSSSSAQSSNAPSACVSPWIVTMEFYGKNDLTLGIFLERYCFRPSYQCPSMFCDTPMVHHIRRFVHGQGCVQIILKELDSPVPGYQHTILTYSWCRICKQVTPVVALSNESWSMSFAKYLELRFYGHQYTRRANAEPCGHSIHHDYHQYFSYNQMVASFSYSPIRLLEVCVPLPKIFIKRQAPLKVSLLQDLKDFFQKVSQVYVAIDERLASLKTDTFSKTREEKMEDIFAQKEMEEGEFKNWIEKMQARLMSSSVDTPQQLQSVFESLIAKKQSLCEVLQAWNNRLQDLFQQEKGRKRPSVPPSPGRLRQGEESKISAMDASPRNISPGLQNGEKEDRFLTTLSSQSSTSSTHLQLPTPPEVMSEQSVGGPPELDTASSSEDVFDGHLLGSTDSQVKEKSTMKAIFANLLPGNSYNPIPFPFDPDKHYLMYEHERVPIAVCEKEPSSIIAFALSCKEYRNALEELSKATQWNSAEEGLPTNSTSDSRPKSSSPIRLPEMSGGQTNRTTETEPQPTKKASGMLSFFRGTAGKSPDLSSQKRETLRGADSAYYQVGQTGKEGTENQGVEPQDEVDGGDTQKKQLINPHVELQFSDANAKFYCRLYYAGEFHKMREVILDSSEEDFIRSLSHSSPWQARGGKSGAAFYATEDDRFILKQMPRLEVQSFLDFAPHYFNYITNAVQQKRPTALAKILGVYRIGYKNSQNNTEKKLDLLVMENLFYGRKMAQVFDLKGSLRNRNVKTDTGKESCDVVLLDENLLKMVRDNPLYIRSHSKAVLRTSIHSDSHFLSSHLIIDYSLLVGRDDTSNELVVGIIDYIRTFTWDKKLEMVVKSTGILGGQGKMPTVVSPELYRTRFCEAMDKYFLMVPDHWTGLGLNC

Turning to `Cc1cccc(/C=N/Nc2cc(N3CCOCC3)nc(OCCc3ccccn3)n2)c1` [LAM-002], the IC50 in data set [1] amounted to 44 nM; in data set [2], 71 nM; in data set [3], 60 nM; in data set [4] it was 11 nM; in data set [5], 27 nM; in data set [6], 32 nM. The IC50 in data set [7] came out at 9 nM; in data set [8], 8 nM.
Take `Cc1cccc(/C=N/Nc2cc(N3CCOCC3)nc(OCCc3ccccn3)n2)c1` [apilimod]: the cytotoxicity result in data set [9], in data set [10], in data set [11], in [12] and in data set [24] was “not cytotoxic” in each case. Further, the IC50 is 250 to 300 nM in [13]; 13.7 nM in data set [14]; 117 nM in data set [15]; 19.7 nM in [16]; 16.1 nM in [17]; 132 nM in data set [18]. Moreover, the IC50 came out at 20.1 nM in data set [19], 70.7 nM in [20] and 28.8 nM in data set [21]. Further, the “log (FC)” value in [22] (capture compound 0.1 μM) was 6.2; in data set [22] (capture compound 0.5 μM), 5.6; in data set [22] (capture compound 1.0 μM) it was “Inf”; in data set [22] (capture compound 2.0 μM), 3.9. For the same compound, the “autophagy (autophagic vacuoles)” value in [23] is on record as “induces autophagy in a dose-dependent manner”. Besides, the “synovial IL-12 and IL-23 expression” value in data set [25] was “failed to alter synovial IL-12 and IL-23 expression”. The “sensitivity to apilimod-induced cytotoxicity” value in data set [26] is reported as “not sensitive”.
